Test results taken from ChEMBL document CHEMBL1201862, “PubChem BioAssay data set” (2004).
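Five concentrations, 48 hours, 96-well plates. Here, GI50 denotes the concentration required for 50% inhibition of growth.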 Calls of active or inactive are those of the source. No stated cut-off is given here; in the data, active = GI50 up to about 1.1 µM and inactive = higher.

Experiments:
Assay in all cases: inhibition of tumour cell growth, NCI panel, 48 h
A549 = system: A549
EKVX = system: EKVX
HOP-62 = system: HOP-62
HT-29 = system: HT-29
IGROV-1 = system: IGROV-1
K562 = system: K562
NCI-H226 = system: NCI-H226
NCI-H23 = system: NCI-H23
NCI-H460 = system: NCI-H460
NCI-H522 = system: NCI-H522
OVCAR-3 = system: OVCAR-3
SN12C = system: SN12C
TK-10 = system: TK-10
UACC-62 = system: UACC-62
UO-31 = system: UO-31
XF498 = system: XF498
A498 = system: A498

Measured: GI50

C1=CC2SSSC2C1 (centres undefined)
inactive: A549 > 100 µM | EKVX > 100 µM | HOP-62 > 100 µM | HT-29 > 100 µM | IGROV-1 > 100 µM | K562 > 100 µM | NCI-H226 > 100 µM | NCI-H23 > 100 µM | NCI-H460 > 100 µM | NCI-H522 > 100 µM | OVCAR-3 > 100 µM | SN12C > 100 µM | TK-10 > 100 µM | UACC-62 > 100 µM | UO-31 > 100 µM | XF498 > 100 µM

COc1ccc(CCN(C)C2CCC(C#N)(c3ccc(OC)c(OC)c3)CC2)cc1OC (centres undefined)
inactive: A549 > 100 µM | EKVX > 100 µM | HOP-62 > 100 µM | HT-29 34.4 µM | IGROV-1 > 100 µM | K562 39.1 µM | NCI-H226 > 100 µM | NCI-H23 > 100 µM | NCI-H460 > 100 µM | NCI-H522 > 10 µM | OVCAR-3 > 100 µM | SN12C > 100 µM | TK-10 > 100 µM | UACC-62 > 100 µM | UO-31 > 100 µM | XF498 > 100 µM

CCOC(=O)/C(O)=C(/C(=O)OC)c1ccc(Cl)cc1
inactive: A498 > 100 µM | A549 > 100 µM | EKVX > 100 µM | HOP-62 > 100 µM | HT-29 > 100 µM | IGROV-1 > 100 µM | K562 > 100 µM | NCI-H23 > 100 µM | NCI-H460 > 100 µM | OVCAR-3 > 100 µM | SN12C > 100 µM | TK-10 > 100 µM | UACC-62 > 100 µM | UO-31 > 100 µM | XF498 > 100 µM

COc1ccc(NC(=O)C2=CC(=O)c3ccc(O)cc3C2=O)c(OC)c1
inactive: A498 > 100 µM | A549 > 100 µM | EKVX > 100 µM | HOP-62 > 100 µM | HT-29 > 100 µM | IGROV-1 > 100 µM | K562 > 100 µM | NCI-H226 > 100 µM | NCI-H23 > 100 µM | NCI-H460 > 100 µM | OVCAR-3 > 100 µM | SN12C > 100 µM | TK-10 > 100 µM | UACC-62 > 100 µM | XF498 > 100 µM

CCCCC(C(=O)C(=O)Nc1ccc(C)cc1C)C(=O)C(C)C (centres undefined)
inactive: A498 > 100 µM | A549 > 100 µM | EKVX > 100 µM | HOP-62 > 100 µM | HT-29 > 100 µM | IGROV-1 > 100 µM | K562 > 100 µM | NCI-H226 > 100 µM | NCI-H23 > 100 µM | NCI-H460 > 100 µM | OVCAR-3 > 100 µM | SN12C > 100 µM | TK-10 > 100 µM | UACC-62 > 100 µM | UO-31 > 100 µM | XF498 > 100 µM

CC(=O)NC(CCCNC(=O)N(CCCl)N=O)C(=O)NCc1ccccc1 (centres undefined)
inactive: A549 69.2 µM | EKVX > 100 µM | HOP-62 40 µM | HT-29 > 100 µM | IGROV-1 59.7 µM | K562 > 100 µM | NCI-H226 > 100 µM | NCI-H23 > 100 µM | NCI-H460 2.32 µM | NCI-H522 > 100 µM | OVCAR-3 > 100 µM | SN12C 91.4 µM | TK-10 > 100 µM | UACC-62 > 100 µM | UO-31 > 100 µM | XF498 > 100 µM

S=C(N/N=C/c1ccccc1)NC1CC(c2ccccc2)Oc2ccccc21 (centres undefined)
inactive: A549 26.8 µM | EKVX 18.8 µM | HT-29 53 µM | IGROV-1 > 100 µM | K562 15.2 µM | NCI-H226 > 100 µM | NCI-H23 25.8 µM | NCI-H460 23.1 µM | NCI-H522 > 100 µM | OVCAR-3 8.95 µM | SN12C > 100 µM | TK-10 > 10 µM | UACC-62 48.8 µM | UO-31 > 100 µM | XF498 34.5 µM
